Read-outs that look alike come from different tables or passages of the source.

Assay [1] deals with NCI-H1975 (expressing EGFR L858R/T790M double-mutant gene). The experiment in a line: Cancer cell growth, Cell Titer-Glo, 72 h: NCI-H1975. It is filed as cell-based. As to conditions: Homo sapiens. The text has this: (§1) Compounds of the present invention were further evaluated for their selectivity in inhibiting proliferation of cancer cells by testing effects of the novel kinase inhibitors on proliferation of cancer cells. In the examples the following cells were selected: human non-small cell lung cancer cell NCI-H1975 (expressing EGFR L858R/T790M double-mutant gene), human-derived non-small cell lung cancer cell PC-9 (expressing EGFR delE746_A750 mutant gene), human-derived non-small cell lung cancer cell HCC827 (expressing EGFR delE746_A750 mutant gene), human lung adenocarcinoma cell HCC4006 (expressing EGFR delE746_A750 mutant gene), human non-small cell lung cancer cell NCI-H3255 (expressing EGFR L858R mutant gene), human skin squamous carcinoma cell A431 (expressing wild-type EGFR gene), human non-small cell lung cancer cell A549 (expressing wild-type EGFR gene), human non-small cell lung cancer cell NCI-H460 (expressing wild-type EGFR gene), human non-small cell lung cancer cell NCI-H2122 (expressing wild-type EGFR gene), Chinese hamster ovary (CHO) cell (Cricetulus griseus, hamster, Chinese, ovary), Chinese hamster lung cell (CHL), mouse pro-B cell BaF3. The cells above were all purchased from (USA).
(§2) The cells were incubated for 72 h, and then the number of viable cells was determined via quantitative determination with a microplate reader by using Cell Titer-Glo® (Promega, the USA) Luminescent Cell Viability Assay kit.

Assay [2] deals with PC-9 (expressing EGFR delE746_A750 mutant gene). The experiment in a line: Cancer cell growth, Cell Titer-Glo, 72 h: PC-9. In kind it is cell-based. The following applies: Homo sapiens.
Text: as §1, §2

Assay [3] has as its system HCC827 (expressing EGFR delE746_A750 mutant gene). The experiment in a line: Cancer cell growth, Cell Titer-Glo, 72 h: HCC827. It is filed as cell-based. As to conditions: Homo sapiens.
Text: as §1, §2

The test system of assay [4] is NCI-H3255 (expressing EGFR L858R mutant gene). Nature of the assay: Cancer cell growth, Cell Titer-Glo, 72 h: NCI-H3255. It is filed as cell-based. The following applies: Homo sapiens.
Text: as §1, §2

The test system of assay [5] is A431 (expressing wild-type EGFR gene). The experiment in a line: Cancer cell growth, Cell Titer-Glo, 72 h: A431. It is filed as cell-based. The following applies: Homo sapiens.
Text: as §1, §2

Assay [6] concerns A549 (expressing wild-type EGFR gene). Nature of the assay: Cancer cell growth, Cell Titer-Glo, 72 h: A549. It is filed as cell-based. The following applies: Homo sapiens.
Text: as §1, §2

The test system of assay [7] is NCI-H460 (expressing wild-type EGFR gene). Nature of the assay: Cancer cell growth, Cell Titer-Glo, 72 h: NCI-H460. In kind it is cell-based. The following applies: Homo sapiens.
Text: as §1, §2

The subject of assay [8] is mouse pro-B cell BaF3. The experiment in a line: Cell growth, Cell Titer-Glo, 72 h: BaF3. In kind it is cell-based.
Text: as §1, §2

Assay [9] relates to BaF3-TEL-EGFR (stably expressing wild-type EGFR kinase). Nature of the assay: Cell growth, Cell Titer-Glo, 72 h: BaF3-TEL-EGFR. It is filed as cell-based. The following applies: Mus musculus.
Text: (§3) In addition, this example further uses: mouse BaF3-TEL-EGFR (stably expressing wild-type EGFR kinase), mouse BaF3-TEL-EGFR-L858R (stably expressing EGFR L858R mutant kinase), mouse BaF3-TEL-EGFR-T790M (stably expressing EGFR T790M mutant kinase), mouse BaF3-FL-EGFR-DeI19 (stably expressing EGFR delE746_A750 mutant kinase), mouse BaF3-FL-EGFR-T790M-L858R (stably expressing EGFR T790M/L858R mutant kinase), mouse BaF3/P210 (stably expressing bcr/abl˜(P210) mutant kinase), mouse BaF3-TEL-ABL-T315I (stably expressing ABLT315I mutant kinase), mouse BaF3-FLT3-ITD (stably expressing FLT3/ITD mutant kinase), mouse BaF3-TEL-JAK2 (stably expressing JAK2 kinase), mouse BaF3-TEL-JAK3 (stably expressing JAK3 kinase), mouse BaF3-TPR-MET (stably expressing MET kinase), mouse BaF3-TEL-BLK (stably expressing BLK kinase), mouse BaF3-TEL-ABL (stably expressing ABL kinase), mouse BaF3-TEL-BMX (stably expressing BMX kinase), mouse BaF3-TEL-ALK (stably expressing ALK kinase). The above cell lines were all constructed by our laboratory according to the following method: the kinase region sequences of human […], EGFR L858R, EGFR T790M, EGFR delE746_A750, EGFR T790M/L858R, bcr/abl˜(P210), ABL T315I, FLT3/ITD, JAK2, JAK3, MET, BLK, ABL, BMX, ALK were amplified respectively by PCR, inserted respectively into MSCV-Puro vectors harboring N-terminal fragment and/or NPM fragment and/or TPR fragment (Clontech), then the vectors were stably transfected into mouse BaF3 cells by retrovirus methods and growth factor IL-3 was removed, eventually obtaining cell lines that are transferred protein (EGFR, EGFR L858R, EGFR T790M, EGFR delE746_A750, EGFR T790M/L858R, bcr/abl˜(P210), ABL T315I, FLT3/ITD, JAK2, JAK3, MET, BLK, ABL, BMX, ALK)-dependent.
as §2

The test system of assay [10] is BaF3-TEL-EGFR-L858R (stably expressing EGFR L858R mutant kinase). The experiment in a line: Cell growth, Cell Titer-Glo, 72 h: BaF3-TEL-EGFR-L858R. As to conditions: Mus musculus. In kind it is cell-based.
Text: as §3, §2

The subject of assay [11] is BaF3-TEL-EGFR-T790M (stably expressing EGFR T790M mutant kinase). Nature of the assay: Cell growth, Cell Titer-Glo, 72 h: BaF3-TEL-EGFR-T790M. It is filed as cell-based. The following applies: Mus musculus.
Text: as §3, §2

Assay [12] concerns NCI-H2122 (expressing wild-type EGFR gene). Nature of the assay: Cancer cell growth, Cell Titer-Glo, 72 h: NCI-H2122. The following applies: Homo sapiens, NCI-H2122 cells. It is filed as cell-based.
Text: as §1, with “The cells above were all purchased from (USA).” left out
as §2

In assay [13] the test system is BaF3-FL-EGFR-T790M-L858R (stably expressing EGFR T790M/L858R mutant kinase). The experiment in a line: Cell growth, Cell Titer-Glo, 72 h: BaF3-FL-EGFR-T790M-L858R. In kind it is cell-based. As to conditions: Mus musculus, BaF3-FL-EGFR-T790M-L858R cells.
Text: as §3, §2

Assay [14] deals with EGFR and signaling proteins in A549, H1975, PC-9, H3255 and HCC827 cells. Nature of the assay: Effect on cell signaling pathways (phosphorylation of EGFR and downstream proteins). It is filed as cell-based, human. The following applies: A549, H1975, PC-9, H3255, HCC827 cells; 4 hour-treatment; 0.01-3 μM.
In assay [15] the test system is BaF3-FL-EGFR-Del19 (stably expressing EGFR delE746_A750 mutant kinase). The experiment in a line: Cell growth, Cell Titer-Glo, 72 h: BaF3-FL-EGFR-Del19. It is filed as cell-based. As to conditions: Mus musculus, BaF3-FL-EGFR-Del19 cells.
Text: In addition, this example further uses: mouse BaF3-TEL-EGFR (stably expressing wild-type EGFR kinase), mouse BaF3-TEL-EGFR-L858R (stably expressing EGFR L858R mutant kinase), mouse BaF3-TEL-EGFR-T790M (stably expressing EGFR T790M mutant kinase), mouse BaF3-FL-EGFR-DeI19 (stably expressing EGFR delE746_A750 mutant kinase), mouse BaF3-FL-EGFR-T790M-L858R (stably expressing EGFR T790M/L858R mutant kinase), mouse BaF3/P210 (stably expressing bcr/abl˜(P210) mutant kinase), mouse BaF3-TEL-ABL-T315I (stably expressing ABLT315I mutant kinase), mouse BaF3-FLT3-ITD (stably expressing FLT3/ITD mutant kinase), mouse BaF3-TEL-JAK2 (stably expressing JAK2 kinase), mouse BaF3-TEL-JAK3 (stably expressing JAK3 kinase), mouse BaF3-TPR-MET (stably expressing MET kinase), mouse BaF3-TEL-BLK (stably expressing BLK kinase), mouse BaF3-TEL-ABL (stably expressing ABL kinase), mouse BaF3-TEL-BMX (stably expressing BMX kinase), mouse BaF3-TEL-ALK (stably expressing ALK kinase). […]
as §2

The mark [16] stands for this setting: NCI-H1975 cells, 72 h, read-out: GI50.
Where [17] appears, read: PC-9 cells, 72 h, read-out: GI50.
Where [18] appears, read: HCC827 cells, 72 h, read-out: GI50.
Setting [19] is: NCI-H3255 cells, 72 h, read-out: GI50.
The mark [20] stands for this setting: A-431, A431 cells, 72 h, read-out: GI50.
Where [21] appears, read: A549 cells, 72 h, read-out: GI50.
The mark [22] stands for this setting: NCI-H460 cells, 72 h, read-out: GI50.
[23] abbreviates: BaF3 cells, 72 h, read-out: GI50.
The mark [24] stands for this setting: BaF3-TEL-EGFR cells, read-out: GI50.
Setting [25] is: BaF3-TEL-EGFR-L858R cells, read-out: GI50.
[26] abbreviates: BaF3-TEL-EGFR-T790M cells, read-out: GI50.

As for `C=CC(=O)Nc1cc(Nc2nccc(-c3cn(C)c4ccccc34)n2)c(OC)cc1N(C)CCN(C)C` [AZD9291, reference compound], the GI50 in assay [1] (NCI-H1975, 72 h) is […]; in assay [2] (PC-9, 72 h), 3 nM; in [3] (HCC827, 72 h), 4 nM; in [4] (NCI-H3255, 72 h) it was 31 nM; in assay [5] (A-431, 72 h), […]; in [6] (A549, 72 h) it was 5000 nM. Also, the GI50 in [7] (NCI-H460, 72 h) turned out to be 4000 nM; in [8] (BaF3, 72 h), 2700 nM; in assay [9], 1800 nM; in [10] it was 1.7 nM; in assay [11], 22 nM.
`C=CC(=O)Nc1cccc(Nc2nc(Nc3ccc(N4CCN(C(C)=O)CC4)cc3OC)ncc2C(F)(F)F)c1` [CO-1686, reference compound]: the 50% growth inhibitory concentration (GI50) in [1] (setting [16]) turned out to be 440 nM; in assay [2] (setting [17]), 130 nM; in [3] (setting [18]), 97 nM; in assay [4] (setting [19]), 250 nM; in assay [5] (setting [20]), 1200 nM; in assay [6] (setting [21]), 830 nM. Moreover, the 50% growth inhibitory concentration (GI50) in assay [7] (setting [22]) came out at 2500 nM; in assay [8] (setting [23]) it was 970 nM; in assay [9] (setting [24]) it was 2800 nM; in [10] (setting [25]) it was 6.3 nM; in [11] (setting [26]), 130 nM.
Take `C=CC(=O)N1CC[C@@H](n2nc(-c3ccc(OCc4cccc(F)c4)c(Cl)c3)c3c(N)ncnc32)C1` [Compound 4, (R)-1-(3-(4-amino-3-(3-chloro-4-((3-fluorobenzyl)oxy)phenyl)-1H-pyrazolo[3,4-d]pyrimidin-1-yl)pyrrolidin-1-yl)prop-2-en-1-one]: the GI50 in assay [1] (setting [16]) is 53 nM; in [2] (setting [17]) it was 28 nM; in assay [3] (setting [18]), 38 nM; in assay [4] (setting [19]), 28 nM; in assay [5] (setting [20]), 17 nM; in [6] (setting [21]) it was 3700 nM. Also, the concentration for 50% growth inhibition (GI50) in assay [12] is 130 nM; in assay [8] (setting [23]) it was 4100 nM; in [9] (setting [24]) it was 13 nM; in [10] (setting [25]), less than 0.3 nM; in assay [13], less than 0.3 nM.
For `C=CC(=O)N1CCC[C@@H](n2nc(-c3ccc(OCc4cccc(C)n4)c(Cl)c3)c3c(N)ncnc32)C1` [Compound 29, (R)-1-(3-(4-amino-3-(3-chloro-4-((6-methylpyridin-2-yl)methoxy)phenyl)-1H-pyrazolo[3,4-d]pyrimidin-1-yl)piperidin-1-yl)prop-2-en-1-one], the concentration for 50% growth inhibition (GI50) is less than 0.3 nM in [1] (setting [16]); 35 nM in assay [2] (setting [17]); 36 nM in [3] (setting [18]); 27 nM in assay [4] (setting [19]); more than 10000 nM in [5] (setting [20]); more than 10000 nM in assay [6] (setting [21]). The concentration for 50% growth inhibition (GI50) in [7] (setting [22]) is 4000 nM; in assay [8] (setting [23]), more than 10000 nM; in assay [9] (setting [24]), 5400 nM; in assay [10] (setting [25]) it was less than 0.3 nM; in assay [11] (setting [26]) it was less than 0.3 nM; in [13], 6 nM. In assay [14], the “phosphorylation of EGFR protein” value was “strongly inhibit”. In addition, the “phosphorylation of proteins such as AKT308, eIF4E, P70S6K and ERK downstream of EGFR” value in assay [14] is recorded as “significant effect”.
For `CCC(=O)N1CCC[C@@H](n2nc(-c3ccc(OCc4cccc(F)c4)c(Cl)c3)c3c(N)ncnc32)C1` [Compound 51, (R)-1-(3-(4-amino-3-(3-chloro-4-((3-fluorobenzyl)oxy)phenyl)-1H-pyrazolo[3,4-d]pyrimidin-1-yl)piperidin-1-yl)propan-1-one], the GI50 is 2700 nM in assay [1] (setting [16]); 3200 nM in assay [2] (setting [17]); 3900 nM in assay [3] (setting [18]); more than 10000 nM in assay [4] (setting [19]); 9000 nM in [5] (setting [20]); more than 10000 nM in assay [6] (setting [21]). For the same compound, the GI50 amounted to 3900 nM in assay [12]; 9200 nM in [8] (setting [23]); 3700 nM in assay [9] (setting [24]); 940 nM in assay [10] (setting [25]); 1100 nM in assay [11] (setting [26]); 1200 nM in assay [15]. The 50% growth inhibitory concentration (GI50) in assay [13] stood at 1700 nM.

Values taken from patent US10781214B2, “Kinase inhibitor against wild-type and mutant EGFR” (PRECEDO PHARMACEUTICALS CO., LTD, priority 2015, dated 2020).
